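Results reflect a 48-hour exposure of cells in 96-well plates to compound at five concentrations. GI50 is the concentration that inhibits growth by half. Definition used: TGI = concentration required for complete inhibition of growth.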
What was measured:
Test in all cases: NCI-60 cell line screen, 48 h
OVCAR-8 ovarian = test system: OVCAR-8 ovarian
NCI-H522 lung = test system: NCI-H522 lung
CCRF-CEM leukemia = test system: CCRF-CEM leukemia
SK-MEL-5 melanoma = test system: SK-MEL-5 melanoma
PC-3 prostate = test system: PC-3 prostate
HCT-15 colon = test system: HCT-15 colon
HT29 colon = test system: HT29 colon
SW-620 colon = test system: SW-620 colon
ACHN renal = test system: ACHN renal
SF-539 CNS = test system: SF-539 CNS
A549 NSCLC = test system: A549 NSCLC
MOLT-4 leukemia = test system: MOLT-4 leukemia
RXF 393 renal = test system: RXF 393 renal
HOP-62 NSCLC = test system: HOP-62 NSCLC
U251 CNS = test system: U251 CNS
UACC-62 melanoma = test system: UACC-62 melanoma
SF-295 CNS = test system: SF-295 CNS
MDA-MB-435 = test system: MDA-MB-435
T-47D breast = test system: T-47D breast
SNB-19 CNS = test system: SNB-19 CNS
HOP-92 NSCLC = test system: HOP-92 NSCLC
SK-MEL-28 melanoma = test system: SK-MEL-28 melanoma
SNB-75 CNS = test system: SNB-75 CNS
M14 melanoma = test system: M14 melanoma
COLO 205 colon = test system: COLO 205 colon
MALME-3M melanoma = test system: MALME-3M melanoma
NCI-H226 lung = test system: NCI-H226 lung
OVCAR-4 ovarian = test system: OVCAR-4 ovarian
HCT-116 colon = test system: HCT-116 colon
IGROV1 ovarian = test system: IGROV1 ovarian
MDA-MB-231 breast = test system: MDA-MB-231 breast
UO-31 renal = test system: UO-31 renal
SN12C renal = test system: SN12C renal
BT-549 breast = test system: BT-549 breast
LOX IMVI melanoma = test system: LOX IMVI melanoma
DU-145 prostate = test system: DU-145 prostate
RPMI-8226 leukemia = test system: RPMI-8226 leukemia
HS 578T breast = test system: HS 578T breast
NCI-H460 lung = test system: NCI-H460 lung
MCF7 breast = test system: MCF7 breast
HL-60(TB) leukemia = test system: HL-60(TB) leukemia
SR leukemia = test system: SR leukemia
786-0 renal = test system: 786-0 renal
HCC-2998 colon = test system: HCC-2998 colon
SK-MEL-2 melanoma = test system: SK-MEL-2 melanoma
K-562 leukemia = test system: K-562 leukemia
SK-OV-3 ovarian = test system: SK-OV-3 ovarian
UACC-257 melanoma = test system: UACC-257 melanoma
OVCAR-5 ovarian = test system: OVCAR-5 ovarian
NCI-H23 lung = test system: NCI-H23 lung
SF-268 CNS = test system: SF-268 CNS
NCI/ADR-RES ovarian = test system: NCI/ADR-RES ovarian
CAKI-1 renal = test system: CAKI-1 renal
A498 renal = test system: A498 renal
KM12 colon = test system: KM12 colon
OVCAR-3 ovarian = test system: OVCAR-3 ovarian
EKVX NSCLC = test system: EKVX NSCLC
TK-10 renal = test system: TK-10 renal

Compound `COC(=O)c1ccc2[nH]c(O)c(C(=Nc3ccc(N(C)C(=O)CN4CCN(C)CC4)cc3)c3ccc4c(c3)OCO4)c2c1` has a GI50 (OVCAR-8 ovarian) of 0.774 µM, a TGI (OVCAR-8 ovarian) of 7.34 µM and a GI50 (NCI-H522 lung) of 0.859 µM. The TGI (NCI-H522 lung) was 3.66 µM, the GI50 (CCRF-CEM leukemia) was 0.388 µM and the TGI (CCRF-CEM leukemia) was 6.25 µM. For the same compound, the GI50 (SK-MEL-5 melanoma) was 0.878 µM, the TGI (SK-MEL-5 melanoma) was 2.17 µM and the GI50 (PC-3 prostate) was 0.489 µM. For the same compound, the TGI (PC-3 prostate) was 3.39 µM, the GI50 (HCT-15 colon) was 1.52 µM and the TGI (HCT-15 colon) was 5.8 µM. The GI50 (HT29 colon) was 0.553 µM, the TGI (HT29 colon) was > 27.8 µM and the GI50 (SW-620 colon) was 0.348 µM. It also gave a TGI (SW-620 colon) of 2.21 µM, a GI50 (ACHN renal) of 1.58 µM and a TGI (ACHN renal) of 7.11 µM. It also gave a GI50 (SF-539 CNS) of 0.341 µM, a TGI (SF-539 CNS) of 1.31 µM and a GI50 (A549 NSCLC) of 1.09 µM. The TGI (A549 NSCLC) was 4.12 µM, the GI50 (MOLT-4 leukemia) was 0.323 µM and the TGI (MOLT-4 leukemia) was 2.4 µM. The GI50 (RXF 393 renal) was 0.36 µM, the TGI (RXF 393 renal) was 1.52 µM and the GI50 (HOP-62 NSCLC) was 0.939 µM. The TGI (HOP-62 NSCLC) was 4.53 µM, the GI50 (U251 CNS) was 0.884 µM and the TGI (U251 CNS) was 2.5 µM. It also gave a GI50 (UACC-62 melanoma) of 2.1 µM, a TGI (UACC-62 melanoma) of 6.86 µM and a GI50 (SF-295 CNS) of 0.754 µM. It also gave a TGI (SF-295 CNS) of 2.16 µM, a GI50 (MDA-MB-435) of 0.724 µM and a TGI (MDA-MB-435) of 2.19 µM. For the same compound, the GI50 (T-47D breast) was 0.739 µM, the TGI (T-47D breast) was 8 µM and the GI50 (SNB-19 CNS) was 1.06 µM. The TGI (SNB-19 CNS) was 6.05 µM, the GI50 (HOP-92 NSCLC) was 2.09 µM and the TGI (HOP-92 NSCLC) was 7.75 µM. It also gave a GI50 (SK-MEL-28 melanoma) of 1.21 µM, a TGI (SK-MEL-28 melanoma) of 2.92 µM and a GI50 (SNB-75 CNS) of 0.0752 µM. For the same compound, the TGI (SNB-75 CNS) was 1.65 µM, the GI50 (M14 melanoma) was 0.538 µM and the TGI (M14 melanoma) was 1.8 µM. The GI50 (COLO 205 colon) was 0.369 µM, the TGI (COLO 205 colon) was 1.74 µM and the GI50 (MALME-3M melanoma) was 0.895 µM. It also gave a TGI (MALME-3M melanoma) of 2.29 µM, a GI50 (NCI-H226 lung) of 0.616 µM and a TGI (NCI-H226 lung) of 6.13 µM. It also gave a GI50 (OVCAR-4 ovarian) of 0.761 µM, a TGI (OVCAR-4 ovarian) of 2.72 µM and a GI50 (HCT-116 colon) of 0.197 µM. The TGI (HCT-116 colon) was 1.52 µM, the GI50 (IGROV1 ovarian) was 0.176 µM and the TGI (IGROV1 ovarian) was 1.52 µM. It also gave a GI50 (MDA-MB-231 breast) of 1.08 µM, a TGI (MDA-MB-231 breast) of 2.76 µM and a GI50 (UO-31 renal) of 1.3 µM. It also gave a TGI (UO-31 renal) of 3.71 µM, a GI50 (SN12C renal) of 0.321 µM and a TGI (SN12C renal) of 9.61 µM. For the same compound, the GI50 (BT-549 breast) was 1.06 µM, the TGI (BT-549 breast) was 2.47 µM and the GI50 (LOX IMVI melanoma) was 0.415 µM. The TGI (LOX IMVI melanoma) was 1.9 µM, the GI50 (DU-145 prostate) was 1.03 µM and the TGI (DU-145 prostate) was 6.06 µM. For the same compound, the GI50 (RPMI-8226 leukemia) was 0.655 µM, the TGI (RPMI-8226 leukemia) was 2.83 µM and the GI50 (HS 578T breast) was 0.144 µM. The TGI (HS 578T breast) was 2.56 µM, the GI50 (NCI-H460 lung) was 0.902 µM and the TGI (NCI-H460 lung) was 2.65 µM. For the same compound, the GI50 (MCF7 breast) was 0.327 µM, the TGI (MCF7 breast) was 1.8 µM and the GI50 (HL-60(TB) leukemia) was 0.415 µM. For the same compound, the TGI (HL-60(TB) leukemia) was 1.82 µM, the GI50 (SR leukemia) was 0.232 µM and the TGI (SR leukemia) was 2.93 µM. It also gave a GI50 (786-0 renal) of 0.692 µM, a TGI (786-0 renal) of 2.14 µM and a GI50 (HCC-2998 colon) of 1 µM. It also gave a TGI (HCC-2998 colon) of 2.69 µM, a GI50 (SK-MEL-2 melanoma) of 1.24 µM and a TGI (SK-MEL-2 melanoma) of 3.69 µM. For the same compound, the GI50 (K-562 leukemia) was 0.056 µM, the TGI (K-562 leukemia) was 6.16 µM and the GI50 (SK-OV-3 ovarian) was 0.197 µM. It also gave a TGI (SK-OV-3 ovarian) of 1.19 µM, a GI50 (UACC-257 melanoma) of 2.27 µM and a TGI (UACC-257 melanoma) of 6.77 µM. The GI50 (OVCAR-5 ovarian) was 1.71 µM, the TGI (OVCAR-5 ovarian) was 3.72 µM and the GI50 (NCI-H23 lung) was 0.612 µM. It also gave a TGI (NCI-H23 lung) of 2.85 µM, a GI50 (SF-268 CNS) of 0.929 µM and a TGI (SF-268 CNS) of 3.86 µM. It also gave a GI50 (NCI/ADR-RES ovarian) of 10.7 µM, a TGI (NCI/ADR-RES ovarian) of 34 µM and a GI50 (CAKI-1 renal) of 0.26 µM. For the same compound, the TGI (CAKI-1 renal) was 4.07 µM, the GI50 (A498 renal) was 0.703 µM and the TGI (A498 renal) was 2.18 µM. For the same compound, the GI50 (KM12 colon) was 0.0429 µM, the TGI (KM12 colon) was 1.69 µM and the GI50 (OVCAR-3 ovarian) was 0.638 µM. For the same compound, the TGI (OVCAR-3 ovarian) was 2.23 µM, the GI50 (EKVX NSCLC) was 1.4 µM and the TGI (EKVX NSCLC) was 3.45 µM. For the same compound, the GI50 (TK-10 renal) was 1.36 µM and the TGI (TK-10 renal) was 3.14 µM.

From PubChem BioAssay (NCI)
